US20250304583A1, “INHIBITING G CYCLIC AMP-RESPONSIVE ELEMENT-BINDING PROTEIN (CREB) BINDING PROTEIN (CBP)” (FORMA Therapeutics, Inc., priority 2020, published 2025)
Structures can show the parent of a compound that is named as a salt.

Key:
[1] = system: panel of 10 BRD representing the various branches of the bromodomain tree; experiment: AlphaScreen panel of 10 bromodomains; format: binding; conditions: number of bromodomains out of 10
[2] = Solid form stability at temperature and relative humidity; format: physicochemical; conditions: temperatures up to 40° C. and relative humidity of up to 75%
[3] = Dynamic vapor sorption (hygroscopicity); format: physicochemical; conditions: relative humidity of up to 80%, dynamic vapor sorption isotherm
Source text: Dynamic Vapor Sorption (DVS) data were collected with a SMS DVS Intrinsic from Surface Measurement Systems.

stability of solid form [2] | water uptake [3] [%] | SMILES | activity against 10 bromodomains surveyed [1]
 |  | COC(=O)N1c2ccc3c(nc([C@H](O)c4cc(F)ccc4OC)n3[C@@H]3CCC[C@@H](C(=O)O)C3)c2CC[C@@H]1C [Compound 1, (1R,3R)-3-[(7S)-2-[(R)-(5-fluoro-2-methoxyphenyl)(hydroxy)methyl]-6-(methoxycarbonyl)-7-methyl-3H,6H,7H,8H,9H-imidazo[4,5-f]quinolin-3-yl]cyclohexane-1-carboxylic acid] | inactive against 8
stable for at least two weeks | 6.3 | COC(=O)N1c2ccc3c(nc([C@H](O)c4cc(F)ccc4OC)n3[C@@H]3CCC[C@@H](C(=O)O)C3)c2CC[C@@H]1C [HCl type A salt, (1R,3R)-3-((S)-2-((R)-(5-fluoro-2-methoxyphenyl)(hydroxy)methyl)-6-(methoxycarbonyl)-7-methyl-6,7,8,9-tetrahydro-3H-imidazo[4,5-f]quinolin-3-yl) cyclohexane-1-carboxylic acid] | 
stable for at least two weeks | 2.1 | COC(=O)N1c2ccc3c(nc([C@H](O)c4cc(F)ccc4OC)n3[C@@H]3CCC[C@@H](C(=O)O)C3)c2CC[C@@H]1C [type B p-toluenesulfonic acid addition salt] [(1R,3R)-3-((S)-2-((R)-(5-fluoro-2-methoxyphenyl)(hydroxy)methyl)-6-(methoxycarbonyl)-7-methyl-6,7,8,9-tetrahydro-3H-imidazo[4,5-f]quinolin-3-yl) cyclohexane-1-carboxylic acid] | 
